The test system of the assay is P388 leukemia ip, CD2F1 mice, survival T/C. The assay is described as follows: NCI In Vivo Anticancer Drug Screen. Data for tumor model P388 Leukemia (intraperitoneal) in CD2F1 (CDF1) mice. As to conditions: endpoint: median survival time, higher = longer survival. On the procedure: The antitumor activity of compounds was measured in mice bearing transplantable tumors. Survival or tumor size were measured and the results are expressed as the measurement made in the treated group (T) divided by the measurement made in the vehicle treated control group (C). The tumor model used in this assay is P388 Leukemia (intraperitoneal) in CD2F1 (CDF1) mice

The mark [1] stands for this setting: dose: 100.0 mg/kg/injection, schedule: Q04DX003 (ip), vehicle: saline with Tween-80.
[2] abbreviates: dose: 200.0 mg/kg/injection, schedule: Q04DX003 (ip), vehicle: saline with Tween-80.
[3] abbreviates: dose: 100.0 mg/kg/injection, schedule: Q04DX002 (ip), vehicle: saline with Tween-80.
[4] abbreviates: dose: 50.0 mg/kg/injection, schedule: Q01DX009 (ip), vehicle: saline.
The mark [5] stands for this setting: dose: 100.0 mg/kg/injection, schedule: Q01DX009 (ip), vehicle: saline.
Where [6] appears, read: dose: 100.0 mg/kg/injection, schedule: Q01DX009 (ip), vehicle: saline with Tween-80.
Setting [7] is: dose: 200.0 mg/kg/injection, schedule: Q01DX009 (ip), vehicle: saline with Tween-80.
[8] abbreviates: dose: 50.0 mg/kg/injection, schedule: Q01DX009 (ip), vehicle: saline with Tween-80.
[9] abbreviates: dose: 100.0 mg/kg/injection, schedule: Q01DX001 (ip), vehicle: saline with Tween-80.
[10] abbreviates: dose: 200.0 mg/kg/injection, schedule: Q01DX001 (ip), vehicle: saline with Tween-80.
[11] abbreviates: dose: 400.0 mg/kg/injection, schedule: Q01DX001 (ip), vehicle: saline with Tween-80.
The mark [12] stands for this setting: dose: 50.0 mg/kg/injection, schedule: Q01DX005 (ip), vehicle: Klucel (hydroxypropylcellulose) (HPC).
[13] abbreviates: dose: 100.0 mg/kg/injection, schedule: Q01DX005 (ip), vehicle: Klucel (hydroxypropylcellulose) (HPC).
[14] abbreviates: dose: 200.0 mg/kg/injection, schedule: Q01DX005 (ip), vehicle: Klucel (hydroxypropylcellulose) (HPC).

Several values for one entry are separate records, joined by “and”; a condition that tells them apart may be missing. Identical values can stand only once. Inconclusive results and toxic doses are left out.

Take `CN(C)CC(O)Cn1ccnc1[N+](=O)[O-]` (configuration not stated): the T/C (dose: 12.5 mg/kg/injection, schedule: Q01DX009 (ip), vehicle: water) is 101 % of control; the T/C (dose: 25.0 mg/kg/injection, schedule: Q01DX009 (ip), vehicle: water) is 101 % of control; the T/C (dose: 50.0 mg/kg/injection, schedule: Q01DX009 (ip), vehicle: water) was 111 % of control; the T/C (dose: 100.0 mg/kg/injection, schedule: Q01DX009 (ip), vehicle: water) is 111 % of control; the T/C (dose: 200.0 mg/kg/injection, schedule: Q01DX009 (ip), vehicle: water) is 113 % of control.

Consider `CCN(CCN1C(=O)COCC1=O)c1ccccc1`, for which the T/C under setting [1] was 105 % of control; the T/C under setting [2] is 104 % of control; the T/C (dose: 400.0 mg/kg/injection, schedule: Q04DX003 (ip), vehicle: saline with Tween-80) is 96 % of control.

For the compound `Cc1cc(C)c(N(C)C)c(C)c1`, the T/C is 109 % of control under setting [3] and 110 % of control (dose: 200.0 mg/kg/injection, schedule: Q04DX002 (ip), vehicle: saline with Tween-80).

As to `O=C(O)C(O)C(O)C(=O)O.[Bi].[Na+]` (configuration not stated), the T/C (dose: 12.5 mg/kg/injection, schedule: Q01DX009 (ip), vehicle: saline) was 113 % of control; the T/C (dose: 25.0 mg/kg/injection, schedule: Q01DX009 (ip), vehicle: saline) is 115 % of control; the T/C under setting [4] was 87 % of control and 98 % of control; the T/C under setting [5] is 93 % of control.

Turning to `C[C@@H]1CC2=CC(=O)CC[C@]2(C)[C@H]2CC[C@]3(C)[C@@H](O)CC[C@H]3[C@H]12`, the T/C under setting [6] is 90 % of control and the T/C under setting [7] is 90 % of control.

As for `Cc1cc(C)c2c(c1)sc1n[nH]c(=S)n12`, the T/C was 98 % of control (dose: 50.0 mg/kg/injection, schedule: Q01DX009 (ip), vehicle: Klucel (hydroxypropylcellulose) (HPC)); 90 % of control (dose: 100.0 mg/kg/injection, schedule: Q01DX009 (ip), vehicle: Klucel (hydroxypropylcellulose) (HPC)); 90 % of control (dose: 200.0 mg/kg/injection, schedule: Q01DX009 (ip), vehicle: Klucel (hydroxypropylcellulose) (HPC)).

Regarding `CCOC(=O)CC(SP(=S)(OC)OC)C(=O)OCC` (configuration not stated), the T/C was 103 % of control under setting [8], 112 % of control under setting [6] and 107 % of control under setting [7].

In the case of `C=CC(=O)NC(C)(C)CC(=O)O`, the T/C under setting [4] was 100 % of control; the T/C under setting [5] is 100 % of control; the T/C (dose: 200.0 mg/kg/injection, schedule: Q01DX009 (ip), vehicle: saline) was 99 % of control.

For the compound `CCC(c1ccc(OC)cc1)C(NCC(=O)N/N=C1\C[C@@H]2[C@H](CC[C@]3(C)[C@@H](O)CC[C@@H]23)c2ccc(O)cc21)c1ccc(OC)cc1` (some centres not stated), the T/C is, setting by setting: under setting [9], 100 % of control; under setting [10], 99 % of control; under setting [11], 99 % of control.

Consider `CC([NH-])C[NH-].[I][Pt+2][I]` (configuration not stated), for which the T/C under setting [3] was 154 % of control and 151 % of control.

`CC1(C)N=C(N)N=C(N)N1c1cccc(CCCCc2ccc(Cl)c(S(=O)(=O)F)c2)c1`: where the note is “dose: 9.33 mg/kg/injection, schedule: Q01DX009 (ip), vehicle: saline”, the T/C was 118 % of control.

In the case of `O=C(O)Cc1sc(=O)[nH]c1O`, the T/C (dose: 100.0 mg/kg/injection, schedule: Q04DX003 (ip), vehicle: saline) was 100 % of control; the T/C (dose: 200.0 mg/kg/injection, schedule: Q04DX003 (ip), vehicle: saline) is 100 % of control; the T/C (dose: 400.0 mg/kg/injection, schedule: Q04DX003 (ip), vehicle: saline) is 95 % of control.

Turning to `COc1cccc2c1C(=O)c1c(O)c3c(c(O)c1C2=O)C[C@@](O)(C(C)=O)C[C@@H]3OC1CC(NC=O)C(O)C(C)O1` (some centres not stated), the T/C is 117 % of control (dose: 1.56 mg/kg/injection, schedule: Q01DX009 (ip), vehicle: saline); 119 % of control (dose: 3.13 mg/kg/injection, schedule: Q01DX009 (ip), vehicle: saline); 153 % of control under setting [4]; 155 % of control under setting [5].

`Cc1ccc(S(=O)(=O)OCCN(CCOS(=O)(=O)c2ccc(C)cc2)c2ccc(C=O)cc2)cc1`: the T/C (dose: 0.78 mg/kg/injection, schedule: Q04DX003 (ip), vehicle: saline with Tween-80) is 100 % of control; the T/C (dose: 1.56 mg/kg/injection, schedule: Q04DX003 (ip), vehicle: saline with Tween-80) was 113 % of control; the T/C (dose: 3.13 mg/kg/injection, schedule: Q04DX003 (ip), vehicle: saline with Tween-80) was 100 % of control; the T/C (dose: 12.5 mg/kg/injection, schedule: Q04DX003 (ip), vehicle: saline with Tween-80) was 154 % of control; the T/C (dose: 25.0 mg/kg/injection, schedule: Q04DX003 (ip), vehicle: saline with Tween-80) was 159 % of control; the T/C (dose: 66.0 mg/kg/injection, schedule: Q04DX003 (ip), vehicle: saline with Tween-80) was 158 % of control. Also, the T/C is, setting by setting: under setting [1], 170 % of control and 172 % of control and 187 % of control; (dose: 150.0 mg/kg/injection, schedule: Q04DX003 (ip), vehicle: saline with Tween-80) 183 % of control; under setting [7], 95 % of control; under setting [2], 162 % of control.

For `CN(CC(=O)O)C(=S)c1ccccc1`, the T/C by setting is: under setting [9], 95 % of control; under setting [10], 95 % of control; under setting [11], 95 % of control.

With `O=C(N/N=C/c1ccccc1O)c1ccccc1-n1cccc1`, the T/C under setting [8] was 95 % of control, the T/C under setting [6] is 104 % of control and the T/C under setting [7] is 94 % of control.

For the compound `C/C=C(\C)C(=O)OC1C2C(C)C(=O)OC2C(O)C(C)C2C=CC(=O)C21C` (configuration not stated), the T/C (dose: 2.5 mg/kg/injection, schedule: Q01DX009 (ip), vehicle: Klucel (hydroxypropylcellulose) (HPC)) is 100 % of control; the T/C (dose: 5.0 mg/kg/injection, schedule: Q01DX009 (ip), vehicle: Klucel (hydroxypropylcellulose) (HPC)) was 106 % of control; the T/C (dose: 10.0 mg/kg/injection, schedule: Q01DX009 (ip), vehicle: Klucel (hydroxypropylcellulose) (HPC)) was 99 % of control; the T/C (dose: 20.0 mg/kg/injection, schedule: Q01DX009 (ip), vehicle: Klucel (hydroxypropylcellulose) (HPC)) is 108 % of control.

With `COc1ccc(S(=O)(=O)N/N=C\c2cc([N+](=O)[O-])cc([N+](=O)[O-])c2O)cc1OC`, the T/C (dose: 50.0 mg/kg/injection, schedule: Q01DX005 (ip), vehicle: saline with Tween-80) was 99 % of control; the T/C (dose: 100.0 mg/kg/injection, schedule: Q01DX005 (ip), vehicle: saline with Tween-80) is 100 % of control; the T/C (dose: 200.0 mg/kg/injection, schedule: Q01DX005 (ip), vehicle: saline with Tween-80) is 99 % of control.

Regarding `CN1CCC(C(C)(C)C)CC1`, the T/C was 89 % of control (dose: 25.0 mg/kg/injection, schedule: Q01DX005 (ip), vehicle: Klucel (hydroxypropylcellulose) (HPC)); 94 % of control under setting [12]; 93 % of control under setting [13]; 98 % of control under setting [14].

As for `C/C(=C\C(=O)O)Cc1ccccc1` (tested in a mixture with another compound), the T/C was 108 % of control (dose: 100.0 mg/kg/injection, schedule: Q04DX003 (ip), vehicle: other); 100 % of control (dose: 200.0 mg/kg/injection, schedule: Q04DX003 (ip), vehicle: other); 108 % of control (dose: 400.0 mg/kg/injection, schedule: Q04DX003 (ip), vehicle: other).

With `N#CCCN(N)S(=O)(=O)c1ccc(Cl)cc1`, the T/C under setting [12] was 97 % of control, the T/C under setting [13] was 99 % of control and the T/C under setting [14] is 96 % of control.

`C=C1C(=O)OC2/C=C(\C)C(OC(C)=O)/C=C\C(C)(O)CC(OC(=O)/C(C)=C/C)C12` (configuration not stated): the T/C is, setting by setting: (dose: 10.0 mg/kg/injection, schedule: Q01DX009 (ip), vehicle: saline with Tween-80) 105 % of control; (dose: 20.0 mg/kg/injection, schedule: Q01DX009 (ip), vehicle: saline with Tween-80) 99 % of control; (dose: 40.0 mg/kg/injection, schedule: Q01DX009 (ip), vehicle: saline with Tween-80) 110 % of control; (dose: 80.0 mg/kg/injection, schedule: Q01DX009 (ip), vehicle: saline with Tween-80) 115 % of control.

As for `C/C(=N\NC(=O)c1cc(C)nc2ccc(Br)cc12)c1ccccc1O`, the T/C is 88 % of control under setting [8], 94 % of control under setting [6] and 110 % of control under setting [7].

The values are drawn from PubChem BioAssay AID330 (DTP/NCI, 2004).
